Measurements as given in patent publication US7537786B2, “Complex of drug-carbon nanohorn and a process for producing the complex” (NEC Corporation, priority 2005, dated 2009).

What was measured:
[1] = system: MC3T3-E1 cells; test: ALP (alkaline phosphatase) activity assay; assay type: cell-based, mouse; conditions: MC3T3-E1, 10 days, differentiation-inducing medium with rhBMP-4
Protocol: Mouse osteoblastic cell (MC3T3-E1) lines were generously provided by Dr. Imamura (Cancer Institute, Japanese Foundation For Cancer Research). MC3T3-E1 cells were maintained in α-minimum essential medium (α-MEM) supplied with 5% FBS, […] in continuous culture at 37° C. in a humidified atmosphere of 5% CO2 and 95% air, and these cells were passaged every 3-4 days.
MC3T3-E1 cells were plated at 26,000 cells/cm^2 in 24 well plates and were grown until confluent. Next, the culture medium was exchanged with differentiation-inducing medium which consisted of α-MEM, 5% FBS, 100 U/ml penicillin, 100 μg/ml streptomycin, 50 μM ascorbic acid, 10 mM β-glycerophosphate and 20 ng/ml rhBMP-4. […]
For ALP activity assay, the medium was removed, and the cells were washed 3 times with TBS (20 mM Tris pH7.4, 150 mM NaCl), then harvested into 250 μl of TBS (contaning 0.2% Triton X-100) by scraping them on ice, and sonicated on ice for 5 min. […] The supernatant was mixed with p-nitro phosphate according to the manufacture's protocol, and the amount of p-nitrophenol released in 10 min was assessed by spectrophotometry (405 nm) with model 550 microplate-reader (Bio-Rad). Protein concentration of supernatant was assessed with protein quantitative assay kit (DC Protein Assay Kit) by the Lowry method. […]

[2] = system: NCI-H460 cells; test: WST-1 assay for cancer cell viability; assay type: cell-based, human; conditions: WST-1, incubation 46 and 72 hours
Protocol: The effect of CDDP released from CNHox was examined using the WST-1 assay. The CDDP-CNHox powder was added to human derived lung cancer cells NCI-H460. CDDP is a drug which has a effect on human lung cancer. These cells were maintained in RPMI-1640 medium containing 5% FBS at 37° C. in a humidified atmosphere with CO2 and air. For these cells, CDDP-CNHox or CDDP or CNHox was added respectively, and after the addition, each sample was examined. NCI-H460 cells were seeded at 4,000 cells/well and were cultured for 43 hours. Meanwhile, the cells were cultured for 67 hours when seeded at 2,500 cells/well (no addition of CDDP-CNHox or CDDP). And then it was confirmed that the NCI-H460 cells were extinct by drug addition. The amount of the extinct NCI-H460 cells was estimated by observing the decrease in the emission intensity to indicate the absorbency of formazan (with blue dye) showing the living of cells. And also, the NCI-H460 cells were directly observed using the optical microscope.

Row | SMILES | concentration at which ALP activity was increased [1] | viability rate of NCI-H460 cells [2]
1 | C[C@@H]1C[C@H]2[C@@H]3CCC4=CC(=O)C=C[C@]4(C)[C@@]3(F)[C@@H](O)C[C@]2(C)[C@@]1(O)C(=O)CO [DEX, Dexamethasone] | no less than 0.05 μM | 
2 | [NH2][Pt]([NH2])([Cl])[Cl] [CDDP, cisplatin] |  | decreased dose-dependently
